Values joined by “and” are separate entries in the source; they are usually repeats but may differ in a detail not shown here. Equal values may be shown once. Read-outs that look alike come from different tables or passages of the source.
Molecular target: T1, M2R (Homo sapiens, UniProt P08172)
T1 sequence (P08172 1-466): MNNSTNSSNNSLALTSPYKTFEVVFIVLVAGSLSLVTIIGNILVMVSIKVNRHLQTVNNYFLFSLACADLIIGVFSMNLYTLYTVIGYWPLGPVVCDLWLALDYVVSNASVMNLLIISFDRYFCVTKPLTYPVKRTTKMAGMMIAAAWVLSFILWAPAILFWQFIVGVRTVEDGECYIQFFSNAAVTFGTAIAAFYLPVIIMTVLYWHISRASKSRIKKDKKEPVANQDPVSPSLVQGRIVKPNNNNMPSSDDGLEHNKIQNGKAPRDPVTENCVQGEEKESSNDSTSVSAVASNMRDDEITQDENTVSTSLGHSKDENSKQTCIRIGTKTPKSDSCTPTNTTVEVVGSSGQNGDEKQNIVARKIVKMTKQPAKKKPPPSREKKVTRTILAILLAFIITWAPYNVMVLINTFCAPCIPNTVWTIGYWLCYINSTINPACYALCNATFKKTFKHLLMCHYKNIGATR
Test: cell-based
Parameters: expressed in transfected cells; host or cells: HEK 293T
Conditions: for Emax: HEK-293T
Method: Determination of β-arrestin-2 recruitment was performed applying the PathHunter assay (DiscoverX, Birmingham, U.K.) which is based on fragment complementation of β-galactosidase as described. In detail, HEK293T cells were transfected with the flag-tagged M2 receptor carrying the PKA fragment for enzyme complementation and transferred into 384-well micro plates. […] Determination of chemoluminescence was done with a Clariostar plate reader (BMG, Ortenberg, Germany). […] Normalized curves from three to five individual experiments each done in duplicate were analyzed by non-linear regression applying the algorithms in Prism 8.0 (GraphPad, San Diego, CA) to get dose-response curves representing average EC50 and Emax value.

## C[N+](C)(C)CC#CCOC1=NOCC1 [Ixo, iperoxo]
read-out: arrestin recruitment as % max effect of acetylcholin, iperoxo log [M] 3-8 + 100µM LY2119620
  Emax: 160%
read-out: arrestin recruitment as % max effect of acetylcholin, iperoxo log [M] 3-9 + 0.1µM LY2119620
  Emax: 160%
read-out: arrestin recruitment as % max effect of acetylcholin, iperoxo log [M] 3-9 + 3µM LY2119620
  Emax: 166%
read-out: arrestin recruitment as % max effect of acetylcholin, iperoxo log [M] 3-9 + 30µM LY2119620
  Emax: 175%
read-out: arrestin recruitment as % max effect of acetylcholin, iperoxo log [M] 3-9 + 100µM LY2119620
  Emax: 159%
read-out: arrestin recruitment as % max effect of acetylcholin, iperoxo log [M] 3-10 + 30µM LY2119620
  Emax: 141%
read-out: arrestin recruitment as % max effect of acetylcholin, iperoxo log [M] 3-10 + 100µM LY2119620
  Emax: 125%
read-out: arrestin recruitment as % max effect of acetylcholin, iperoxo log [M] 3-11 + 0.1µM LY2119620
  Emax: 19.4%
read-out: arrestin recruitment as % max effect of acetylcholin, iperoxo log [M] 3-11 + 1µM LY2119620
  Emax: 30.8%
read-out: arrestin recruitment as % max effect of acetylcholin, iperoxo log [M] 3-11 + 3µM LY2119620
  Emax: 72.1%
read-out: arrestin recruitment as % max effect of acetylcholin, iperoxo log [M] 3-11 + 10µM LY2119620
  Emax: 77.5%
read-out: arrestin recruitment as % max effect of acetylcholin, iperoxo log [M] 3-11 + 100µM LY2119620
  Emax: 58.2%
read-out: arrestin recruitment as % max effect of acetylcholin, iperoxo log [M] -5
  Emax: 152%
read-out: arrestin recruitment as % max effect of acetylcholin, iperoxo log [M] -6 + 0.1µM LY2119620
  Emax: 163%
read-out: arrestin recruitment as % max effect of acetylcholin, iperoxo log [M] -6 + 1µM LY2119620
  Emax: 142%
read-out: arrestin recruitment as % max effect of acetylcholin, iperoxo log [M] -6 + 3µM LY2119620
  Emax: 170%
read-out: arrestin recruitment as % max effect of acetylcholin, iperoxo log [M] -6 + 10µM LY2119620
  Emax: 155%
read-out: arrestin recruitment as % max effect of acetylcholin, iperoxo log [M] -6 + 30µM LY2119620
  Emax: 180%
read-out: arrestin recruitment as % max effect of acetylcholin, iperoxo log [M] -6 + 100µM LY2119620
  Emax: 166%
read-out: arrestin recruitment as % max effect of acetylcholin, iperoxo log [M] -7 + 30µM LY2119620
  Emax: 168%
read-out: arrestin recruitment as % max effect of acetylcholin, iperoxo log [M] -7 + 100µM LY2119620
  Emax: 161%
read-out: arrestin recruitment as % max effect of acetylcholin, iperoxo log [M] -8 + 0.1µM LY2119620
  Emax: 162%
read-out: arrestin recruitment as % max effect of acetylcholin, iperoxo log [M] -8 + 3µM LY2119620
  Emax: 149%
read-out: arrestin recruitment as % max effect of acetylcholin, iperoxo log [M] -8 + 30µM LY2119620
  Emax: 176%
read-out: arrestin recruitment as % max effect of acetylcholin, iperoxo log [M] -8 + 100µM LY2119620
  Emax: 160%
read-out: arrestin recruitment as % max effect of acetylcholin, iperoxo log [M] -10 + 3µM LY2119620
  Emax: 105%
read-out: arrestin recruitment as % max effect of acetylcholin, iperoxo log [M] -10 + 100µM LY2119620
  Emax: 89%
read-out: arrestin recruitment as % max effect of acetylcholin, iperoxo log [M] -11 + 3µM LY2119620
  Emax: 44.6%
read-out: arrestin recruitment as % max effect of acetylcholin, iperoxo log [M] -11 + 30µM LY2119620
  Emax: 75.7%
read-out: arrestin recruitment as % max effect of acetylcholin, iperoxo log [M] -11 + 100µM LY2119620
  Emax: 58.6%
read-out: arrestin recruitment as % max effect of acetylcholin, iperoxo log [M] -12 + 3µM LY2119620
  Emax: 37.8%
read-out: arrestin recruitment as % max effect of acetylcholin, iperoxo log [M] -12 + 100µM LY2119620
  Emax: 62.6%
read-out: arrestin recruitment as % max effect of acetylcholin, iperoxo log [M] -13 + 3µM LY2119620
  Emax: 33%
read-out: arrestin recruitment as % max effect of acetylcholin, iperoxo log [M] -13 + 10µM LY2119620
  Emax: 26.7%
read-out: arrestin recruitment as % max effect of acetylcholin, iperoxo log [M] -13 + 30µM LY2119620
  Emax: 59.3%
read-out: arrestin recruitment as % max effect of acetylcholin, iperoxo log [M] -13 + 100µM LY2119620
  Emax: 44.2%
read-out: enhancement of efficacy (Emax) in β-arrestin recruitment, presence of high concentration of LY2119620
  Emax: ~15%
Iperoxo log [M] 3-9
  arrestin recruitment as % max effect of acetylcholin: 135.8% and 120.8% and 147.9% and 130.1%
Iperoxo log [M] 3-9 + 0.1µM LY2119620
  arrestin recruitment as % max effect of acetylcholin: 156.9%
Iperoxo log [M] 3-9 + 1µM LY2119620
  arrestin recruitment as % max effect of acetylcholin: 109.3% and 162.2% and 161.4% and 201.0%
Iperoxo log [M] 3-9 + 10µM LY2119620
  arrestin recruitment as % max effect of acetylcholin: 130.3% and 161.0% and 169.5%
Iperoxo log [M] 3-9 + 30µM LY2119620
  arrestin recruitment as % max effect of acetylcholin: 168.8% and 163.9%
Iperoxo log [M] 3-10 + 0.1µM LY2119620
  arrestin recruitment as % max effect of acetylcholin: 82.7% and 92.1% and 124.5%
Iperoxo log [M] 3-10 + 3µM LY2119620
  arrestin recruitment as % max effect of acetylcholin: 147.1% and 158.1% and 137.1% and 138.5%
Iperoxo log [M] 3-10 + 10µM LY2119620
  arrestin recruitment as % max effect of acetylcholin: 103.3% and 152.4% and 152.5% and 133.9%
Iperoxo log [M] 3-10 + 30µM LY2119620
  arrestin recruitment as % max effect of acetylcholin: 133.2% and 130.6% and 122.9%
Iperoxo log [M] 3-10 + 100µM LY2119620
  arrestin recruitment as % max effect of acetylcholin: 127.5% and 129.1% and 112.5%
Iperoxo log [M] -7 + 0.1µM LY2119620
  arrestin recruitment as % max effect of acetylcholin: 171.1% and 186.3% and 156.7% and 161.0%
Iperoxo log [M] -7 + 1µM LY2119620
  arrestin recruitment as % max effect of acetylcholin: 129.3% and 176.9% and 172.6%
Iperoxo log [M] -7 + 3µM LY2119620
  arrestin recruitment as % max effect of acetylcholin: 210.7% and 168.6% and 182.6% and 172.8%
Iperoxo log [M] -7 + 10µM LY2119620
  arrestin recruitment as % max effect of acetylcholin: 131.2% and 159.6% and 162.7% and 198.6%
Iperoxo log [M] -7 + 30µM LY2119620
  arrestin recruitment as % max effect of acetylcholin: 161.3% and 181.0% and 168.2%
Iperoxo log [M] -7 + 100µM LY2119620
  arrestin recruitment as % max effect of acetylcholin: 157.1% and 172.7% and 165.6%
Iperoxo log [M] -8 + 0.1µM LY2119620
  arrestin recruitment as % max effect of acetylcholin: 168.3% and 154.3% and 173.5%
Iperoxo log [M] -8 + 1µM LY2119620
  arrestin recruitment as % max effect of acetylcholin: 124.1% and 172.3% and 160.8% and 152.0%
Iperoxo log [M] -8 + 3µM LY2119620
  arrestin recruitment as % max effect of acetylcholin: 158.0% and 166.2% and 162.4%
Iperoxo log [M] -8 + 10µM LY2119620
  arrestin recruitment as % max effect of acetylcholin: 139.2% and 163.1% and 168.9% and 181.1%
Iperoxo log [M] -8 + 30µM LY2119620
  arrestin recruitment as % max effect of acetylcholin: 176.5% and 174.9% and 157.1%
Iperoxo log [M] -8 + 100µM LY2119620
  arrestin recruitment as % max effect of acetylcholin: 165.6% and 153.6% and 149.1%
Iperoxo log [M] -9 + 0.1µM LY2119620
  arrestin recruitment as % max effect of acetylcholin: 127.2% and 148.3% and 150.9% and 143.2%
Iperoxo log [M] -9 + 3µM LY2119620
  arrestin recruitment as % max effect of acetylcholin: 137.5% and 153.6% and 172.9% and 151.5%
Iperoxo log [M] -9 + 10µM LY2119620
  arrestin recruitment as % max effect of acetylcholin: 118.8% and 155.2% and 169.6% and 149.0%
Iperoxo log [M] -9 + 30µM LY2119620
  arrestin recruitment as % max effect of acetylcholin: 161.0% and 151.6% and 144.8% and 137.0%
Iperoxo log [M] -9 + 100µM LY2119620
  arrestin recruitment as % max effect of acetylcholin: 158.6% and 154.0% and 158.3% and 124.7%
Iperoxo log [M] -10 + 10µM LY2119620
  arrestin recruitment as % max effect of acetylcholin: 79.6% and 137.1%
Iperoxo log [M] -10 + 30µM LY2119620
  arrestin recruitment as % max effect of acetylcholin: 112.5% and 108.5% and 109.4%
Iperoxo log [M] -10 + 100µM LY2119620
  arrestin recruitment as % max effect of acetylcholin: 85.8% and 82.4% and 75.4%
